Experimental data as given in patent US20110178092A1, “HIV-1 Protease Inhibitors” (priority 2005, published 2011).

Target: T1, wild type HIV-1 protease (Q7K) (Human immunodeficiency virus type 1 group M subtype B, UniProt P04585, Q495K)
T1 construct: Wide type HIV-1 protease (Q7K)
Assay: FRET HIV-1 protease inhibition assay, wild type
Type: biochemical
Settings: not given
Method: Biological Evaluation of Selected Compounds of the Invention. HIV protease inhibitor activities were determined by fluorescence resonance energy transfer (FRET) method. […] Inhibitor binding dissociation constant (Ki value) was obtained by nonlinear regression fitting to the plot of initial velocity as a function of inhibitor concentration based on Morrison equation.
The energy transfer donor (EDANS) and acceptor (DABCYL) were labeled at its two ends respectively to perform FRET. Fluorescence measurements were carried out on PTI fluorescence spectrophotometer (Photon Technology International) at 30° C. Excitation and emission wavelengths were set at 340 nm and 490 nm, respectively. Each reaction was recorded for about 10 min. Wide type HIV-1 protease (Q7K) and its MDR mutants M1 (L10I, G48V, I54V, L63P, V82A), M2 (D30N, L63P, N88D), and M3 (L10I, L63P, A71V, G73S, I84V, L90M) were desalted through PD-10 columns (Amersham Biosciences). Sodium Acetate (20 mM, pH 5) was used as elution buffer. Apparent protease concentrations were around 50 nM estimated by UV spectrophotometer (Shimadzu) at 280 nm. All inhibitors were dissolved in DMSO and diluted to appropriate concentrations. Protease (2 μL) and inhibitor (2 μL) or DMSO were mixed and incubated for 20-30 min at room temperature before initialing substrate cleavage reaction. Throughout this work, 150 μL of 1 μM substrate was used. Substrate buffer is composite of 0.1 M sodium acetate, 1 M sodium chloride, 1 mM ethylenediaminetetraacetic acid (EDTA), 1 mM dithiothreitol (DTT), 2% dimethylsulfoxide (DMSO) and 1 mg/mL bovine serum albumin (BSA) with an adjusted pH 4.7. Inhibitor binding dissociation constant (Ki) was obtained by nonlinear regression fitting (GraFit 5, Erithacus software) to the plot of initial velocity as a function of inhibitor concentrations based on Morrison equation.

First: COc1ccc(S(=O)(=O)N(CC(C)C)C[C@@H](O)[C@H](Cc2ccccc2)NC(=O)[C@H]2CN(c3ccccc3)C(=O)O2)cc1 [20a, (5R)—N-[(1S,2R)-1-Benzyl-2-hydroxy-3-[isobutyl[(4-methoxyphenyl)sulfonyl]amino]-propyl]-2-oxo-3-phenyloxazolidine-S-carboxamide]
Second: CC(C)CN(C[C@@H](O)[C@H](Cc1ccccc1)NC(=O)[C@H]1CN(c2ccccc2)C(=O)O1)S(=O)(=O)c1ccc(N)cc1 [24a, (5R)—N-[(1S,2R)-3-[[(4-Aminophenyl)sulfonyl](isobutyl)amino]-1-benzyl-2-hydroxypropyl]-2-oxo-3-phenyloxazolidine-S-carboxamide]
The Ki of the first is 3.5-fold lower: 10.7 nM for the first, 37.4 nM for the second.

First: COc1ccc(S(=O)(=O)N(CC(C)C)C[C@@H](O)[C@H](Cc2ccccc2)NC(=O)[C@@H]2CN(c3cccc(F)c3)C(=O)O2)cc1 [21b, (5S)—N-[(1S,2R)-1-Benzyl-2-hydroxy-3-[isobutyl[(4-methoxyphenyl)sulfonyl]amino]-propyl]-3-(3-fluorophenyl)-2-oxo-oxazolidine-S-carboxamide]
Second: COc1ccc(S(=O)(=O)N(CC(C)C)C[C@@H](O)[C@H](Cc2ccccc2)NC(=O)[C@@H]2CN(c3cccc(OC)c3)C(=O)O2)cc1 [21g, (5S)—N-[(1S,2R)-1-Benzyl-2-hydroxy-3-[isobutyl[(4-methoxyphenyl)sulfonyl]-amino]propyl]-3-(3-methoxyphenyl)-2-oxo-oxazolidine-S-carboxamide]
The Ki of the first is 1.8-fold higher: 0.08 nM for the first, 0.045 nM for the second.

Going from `COc1ccc(S(=O)(=O)N(CC(C)C)C[C@@H](O)[C@H](Cc2ccccc2)NC(=O)[C@@H]2CN(c3cccc(C(F)(F)F)c3)C(=O)O2)cc1` [21d, (5S)—N-[(1S,2R)-1-Benzyl-2-hydroxy-3-[isobutyl[(4-methoxyphenyl)sulfonyl]amino]-propyl]-2-oxo-3-[(3-trifluoromethyl)phenyl]oxazolidine-S-carboxamide] to `CC(=O)c1cccc(N2C[C@@H](C(=O)N[C@@H](Cc3ccccc3)[C@H](O)CN(CC(C)C)S(=O)(=O)c3ccc(N)cc3)OC2=O)c1` [25e, (5S)-3-(3-Acetylphenyl)-N-[(1S,2R)-3-[[(4-aminophenyl)sulfonyl](isobutyl)amino]-1-benzyl-2-hydroxypropyl]-2-oxo-oxazolidine-S-carboxamide], the Ki rises from 0.006 nM to 0.032 nM (5.3-fold). The first binds more tightly here.

For `CC(=O)c1cccc(N2C[C@@H](C(=O)N[C@@H](Cc3ccccc3)[C@H](O)CN(CC(C)C)S(=O)(=O)c3ccc4c(c3)OCO4)OC2=O)c1` [26e, (5S)-3-(3-Acetylphenyl)-N-[(1S,2R)-3-[[(benzo-[1,3]-dioxole-5-sulfonyl)](isobutyl)amino]-1-benzyl-2-hydroxypropyl]-2-oxo-oxazolidine-S-carboxamide], the Ki was 0.006 nM.

Same assay, conditions: wild type HIV-1 protease (Q7K), FRET, in triplicate; read-out: Ki

Going from `COc1ccc(S(=O)(=O)N(CC(C)C)C[C@@H](O)[C@H](Cc2ccccc2)NC(=O)[C@@H]2CN(c3ccccc3)C(=O)O2)cc1` [21a, (5S)—N-[(1S,2R)-1-Benzyl-2-hydroxy-3-[isobutyl[(4-methoxyphenyl)sulfonyl]amino]propyl]-2-oxo-3-phenyloxazolidine-S-carboxamide] to `CC(C)CN(C[C@@H](O)[C@H](Cc1ccccc1)NC(=O)[C@@H]1CN(c2ccccc2)C(=O)O1)S(=O)(=O)c1ccc(N)cc1` [25a, (5S)—N-[(1S,2R)-3-[[(4-Aminophenyl)sulfonyl](isobutyl)amino]-1-benzyl-2-hydroxypropyl]-2-oxo-3-phenyloxazolidine-S-carboxamide], the Ki rises from 0.1 nM to 0.53 nM (5.3-fold).

Going from `COc1ccc(S(=O)(=O)N(CC(C)C)C[C@@H](O)[C@H](Cc2ccccc2)NC(=O)[C@@H]2CN(c3ccc(F)c(F)c3)C(=O)O2)cc1` [21c, (5S)—N-[(1S,2R)-1-Benzyl-2-hydroxy-3-[isobutyl[(4-methoxyphenyl)sulfonyl]amino]-propyl]-3-(3,4-difluorophenyl)-2-oxo-oxazolidinone-S-carboxamide] to `COc1ccc(S(=O)(=O)N(CC(C)C)C[C@@H](O)[C@H](Cc2ccccc2)NC(=O)[C@@H]2CN(c3ccc(F)c(F)c3)C(=O)O2)cc1F` [27c, (5S)—N-[(1S,2R)-1-Benzyl-3-[[(3-fluoro-4-methoxyphenyl)sulfonyl](isobutyl)amino]-2-hydroxypropyl]-3-(3,4-difluorophenyl)-2-oxo-oxazolidine-S-carboxamide], the Ki rises from 0.066 nM to 0.343 nM (5.2-fold).

Going from `CC(C)CN(C[C@@H](O)[C@H](Cc1ccccc1)NC(=O)[C@@H]1CN(c2cccc(C(F)(F)F)c2)C(=O)O1)S(=O)(=O)c1ccc(N)cc1` [25d, (5S)—N-[(1S,2R)-3-[[(4-Aminophenyl)sulfonyl](isobutyl)amino]-1-benzyl-2-hydroxypropyl]-2-oxo-3-[(3-trifluoromethyl)phenyl]oxazolidine-S-carboxamide] to `COc1ccc(S(=O)(=O)N(CC(C)C)C[C@@H](O)[C@H](Cc2ccccc2)NC(=O)[C@@H]2CN(c3cccc(C(F)(F)F)c3)C(=O)O2)cc1F` [27d, (5S)—N-[(1S,2R)-1-Benzyl-3-[[(3-fluoro-4-methoxyphenyl)sulfonyl](isobutyl)amino]-2-hydroxypropyl]-2-oxo-3-[(3-trifluoromethyl)phenyl)oxazolidine-S-carboxamide], the Ki rises from 0.042 nM to 0.072 nM (1.7-fold). The first binds more tightly here.

`CC(C)CN(C[C@@H](O)[C@H](Cc1ccccc1)NC(=O)[C@@H]1CN(c2cccc(C(F)(F)F)c2)C(=O)O1)S(=O)(=O)c1ccc2c(c1)OCO2` [26d, (5S)—N-[(1S,2R)-3-[[(Benzo-[1,3]-dioxole-S-sulfonyl)](isobutyl)amino]-1-benzyl-2-hydroxypropyl]-2-oxo-3-[(3-trifluoromethyl)phenyl]oxazolidine-S-carboxamide] and `CC(=O)c1ccc(N2C[C@@H](C(=O)N[C@@H](Cc3ccccc3)[C@H](O)CN(CC(C)C)S(=O)(=O)c3ccc4c(c3)OCO4)OC2=O)cc1` [26f, (5S)-3-(4-Acetylphenyl)-N-[(1S,2R)-3-[[(benzo-[1,3]-dioxole-S-sulfonyl)](isobutyl)-amino]-1-benzyl-2-hydroxypropyl]-2-oxo-oxazolidine-S-carboxamide] are the same in Ki: 0.016 nM for the first, 0.016 nM for the second.

`COc1ccc(S(=O)(=O)N(CC(C)C)C[C@@H](O)[C@H](Cc2ccccc2)NC(=O)[C@@H]2CN(c3cccc(F)c3)C(=O)O2)cc1F` [27b, (5S)—N-[(1S,2R)-1-Benzyl-3-[[(3-fluoro-4-methoxyphenyl)sulfonyl](isobutyl)amino]-2-hydroxypropyl]-3-(3-fluorophenyl)-2-oxo-oxazolidine-S-carboxamide] and `COc1ccc(S(=O)(=O)N(CC(C)C)C[C@@H](O)[C@H](Cc2ccccc2)NC(=O)[C@@H]2CN(c3ccc(C(C)=O)cc3)C(=O)O2)cc1F` [27f, (S)-3-(4-Acetylphenyl)-N-[(1S,2R)-1-Benzyl-3-[[(3-fluoro-4-methoxyphenyl)-sulfonyl](isobutyl)amino]-2-hydroxypropyl]-2-oxo-oxazolidine-S-carboxamide] are within 1.5-fold of each other in Ki: 0.07 nM for the first, 0.08 nM for the second.

Same assay, conditions: wild type HIV-1 protease, qualitative statement

For `CC(C)CN(C[C@@H](O)[C@H](Cc1ccccc1)NC(=O)[C@@H]1CN(c2cccc(F)c2)C(=O)O1)S(=O)(=O)c1ccc(N)cc1` [25b, (5S)—N-[(1S,2R)-3-[[(4-Aminophenyl)sulfonyl](isobutyl)amino]-1-benzyl-2-hydroxypropyl]-3-(3-fluorophenyl)-2-oxo-oxazolidine-S-carboxamide], the “inhibitory activity against wild type HIV-1 protease (in words)” value (shortened to “inhibitory activity”) was “relatively small improvement in activities compared to 25a”.
For `CC(C)CN(C[C@@H](O)[C@H](Cc1ccccc1)NC(=O)[C@@H]1CN(c2ccc(F)c(F)c2)C(=O)O1)S(=O)(=O)c1ccc(N)cc1` [25c, (5S)—N-[(1S,2R)-3-[[(4-Aminophenyl)sulfonyl](isobutyl)amino]-1-benzyl-2-hydroxypropyl]-3-(3,4-difluorophenyl)-2-oxo-oxazolidine-S-carboxamide], the “inhibitory activity” value was “relatively small improvement in activities compared to 25a”.
With `CC(=O)c1ccc(N2C[C@@H](C(=O)N[C@@H](Cc3ccccc3)[C@H](O)CN(CC(C)C)S(=O)(=O)c3ccc(N)cc3)OC2=O)cc1` [25f, (5S)-3-(4-Acetylphenyl)-N-[(1S,2R)-3-[[(4-aminophenyl)sulfonyl](isobutyl)amino]-1-benzyl-2-hydroxypropyl]-2-oxo-oxazolidine-S-carboxamide] the “inhibitory activity” value was “relatively small improvement in activities compared to 25a”.
In the case of `COc1cccc(S(=O)(=O)N(CC(C)C)C[C@@H](O)[C@H](Cc2ccccc2)NC(=O)[C@@H]2CN(c3ccccc3)C(=O)O2)c1` [29a, (5S)—N-[(1S,2R)-1-Benzyl-2-hydroxy-3-[isobutyl[(3-methoxyphenyl)sulfonyl]amino]-propyl]-2-oxo-3-phenyloxazolidine-S-carboxamide], the “inhibitory activity” value is reported as “significant loss of protease inhibitory activity”.
With `COc1cccc(S(=O)(=O)N(CC(C)C)C[C@@H](O)[C@H](Cc2ccccc2)NC(=O)[C@@H]2CN(c3ccc(C(C)=O)cc3)C(=O)O2)c1` [29f, (5S)-3-(4-Acetylphenyl)-N-[(1S,2R)-1-benzyl-2-hydroxy-3-[isobutyl[(3-methoxyphenyl)-sulfonyl]amino]propyl]-2-oxo-oxazolidine-S-carboxamide] the “inhibitory activity” value was “significant loss of protease inhibitory activity”.
